Results reported in ChEMBL document CHEMBL2150845, “BACE Inhibitors: Potential Treatment of Alzheimer's Disease, Dementia, and Related Neurodegenerative Disorders (A): 5,6-Dihydroimidazo[1,2-a]pyrazin-8-yl-amine Derivatives: Patent Highlight” (ACS Med Chem Lett, 2012).

Target: Beta-secretase 1 (Homo sapiens, UniProt P56817)
Assay: Inhibition of BACE1 by FRET assay

Beta-secretase 1, sequence (P56817 whole entry): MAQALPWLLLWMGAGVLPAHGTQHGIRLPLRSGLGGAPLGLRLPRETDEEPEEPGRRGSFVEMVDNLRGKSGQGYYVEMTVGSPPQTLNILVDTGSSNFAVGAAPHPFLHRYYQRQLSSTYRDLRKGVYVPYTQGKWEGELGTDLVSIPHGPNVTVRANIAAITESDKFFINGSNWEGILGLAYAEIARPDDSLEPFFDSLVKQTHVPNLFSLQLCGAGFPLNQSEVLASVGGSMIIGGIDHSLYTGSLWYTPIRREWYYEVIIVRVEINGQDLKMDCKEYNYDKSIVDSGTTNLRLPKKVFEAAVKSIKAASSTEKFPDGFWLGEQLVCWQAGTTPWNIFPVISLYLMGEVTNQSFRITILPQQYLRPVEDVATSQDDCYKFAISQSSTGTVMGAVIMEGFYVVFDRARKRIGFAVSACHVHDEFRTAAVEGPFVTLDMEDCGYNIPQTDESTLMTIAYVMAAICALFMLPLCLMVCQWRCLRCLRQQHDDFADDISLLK

Structure (SMILES) | IC50 [nM]
C[C@@]1(c2cc(NC(=O)c3ccc(C#N)cn3)ccc2F)Cn2c(C#N)cnc2C(N)=N1 | 38.9
C[C@@]1(c2cc(NC(=O)c3ccn(C(F)F)n3)ccc2F)Cn2c(C#N)cnc2C(N)=N1 | 44.7
C[C@@]1(c2cc(NC(=O)c3ccn(C(F)F)n3)ccc2F)Cn2cc(C(F)(F)F)nc2C(N)=N1 | 46.8
NC1=N[C@@](c2cc(NC(=O)c3ccc(F)cn3)ccc2F)(C(F)F)Cn2ccnc21 | > 30200
